Target: Glutamate receptor ionotropic, NMDA 1 (Rattus norvegicus, UniProt P35439)

| Compound | Ki [µM] |
| --- | --- |
| N[C@H](CC(=O)O)C(=O)O | > 10 |
| N[C@@H](CCP(=O)(O)O)C(=O)O [2-Amino-4-phosphono-butyric acid] | 1.5 |
| N[C@@H](Cn1oc(=O)[nH]c1=O)C(=O)O [2-amino-3-(3,5-dioxo[1,2,4]oxadiazolidin-2-yl)propionic acid] | 0.26 |
| CP(=O)(O)CCC(N)C(=O)O (stereo not drawn) [2-amino-4-(methylphosphino) butanoic acid] | 3.8 |
| N[C@H](CCCP(=O)(O)O)C(=O)O [CB3371309] | > 10 |
| N[C@H](CCP(=O)(O)O)C(=O)O [D-AP4] | > 10 |
| N[C@@H](CC(=O)O)C(=O)O [L-Aspartic acid, 2] | 8 |
| CC(C[C@H](N)C(=O)O)P(=O)(O)O (stereo partly drawn) [gamma-methyl-APB] | 8.6 |

Source: BindingDB's records for doi:10.1021/bi00331a002 (University of Minnesota, 1985)
